From patent EP4707280A1, “1,4-CINEOLE DERIVATIVE AND INTERMEDIATE THEREOF, HERBICIDE CONTAINING SAID DERIVATIVE AS ACTIVE INGREDIENT, METHOD FOR USING HERBICIDE, AND METHOD FOR PREPARING AGROCHEMICAL COMPOSITION” (HOKKO CHEMICAL INDUSTRY CO., LTD., priority 2023, dated 2024)

Tests used:
Type in all cases: in vivo
[1] = tested on: Echinochloa crus-galli var. formosensis; experiment: Test Example 1: herbicidal effect test by soil application in paddy rice; conditions: Echinochloa crus-galli, soil, 336 h; 120 g active ingredient per 10 ares; applied immediately after sowing, flooded pots; 14 days after application; read-out: weed inhibition rate
How it was run: (§1)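 Treatment: 120 g active ingredient per 10 ares as a water-diluted emulsifiable concentrate, dropped onto flooded pots immediately after sowing. Thirty seeds per species went 0–1 cm into puddled paddy soil with 16:16:16 fertilizer, with ~3 cm flooding maintained in a glass greenhouse.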

Scirpus juncoides [2] = experiment: as above; conditions: Schoenoplectiella juncoides, soil, 336 h; 120 g active ingredient per 10 ares; applied immediately after sowing, flooded pots; 14 days after application; read-out: weed inhibition rate
How it was run: as §1

[3] = tested on: Echinochloa crus-galli var. formosensis; experiment: Test Example 2: herbicidal effect test by application during growth period of paddy rice; conditions: Echinochloa crus-galli; 120 g per 10 ares; applied seven days after sowing, flooded pots; 14 days after application; read-out: weed inhibition rate
How it was run: (§2)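 Paddy soil in Wagner pots was puddled with N:P:K 16:16:16 fertilizer, sown with 30 weed seeds per species at 0–1 cm and flooded to about 3 cm. Seven days after sowing, a water-diluted emulsifiable concentrate was dropped onto the water at 120 g active ingredient per 10 ares. Weed inhibition (%) was scored at 14 days, in duplicate.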

Scirpus juncoides [4] = experiment: as above; conditions: Schoenoplectiella juncoides; 120 g per 10 ares; applied seven days after sowing, flooded pots; 14 days after application; read-out: weed inhibition rate
How it was run: as §2

Digitaria ciliaris [5] = experiment: Test Example 3: herbicidal effect test by soil application in upland field; conditions: Digitaria ciliaris, 120 g per 10 ares, sprayed one day after sowing, 14 days after application, read-out: weed inhibition rate
How it was run: (§3)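 Weed inhibition (%) was assessed 14 days after treatment, in duplicate per concentration group. Seeds had been mixed into the upper 1 cm of upland alluvial loam, and the soil surface was sprayed one day later with the diluted emulsifiable concentrate at 120 g active ingredient per 10 ares.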

Echinochloa crus-galli [6] = experiment: as above; conditions: Echinochloa crus-galli, 120 g per 10 ares, sprayed one day after sowing, 14 days after application, read-out: weed inhibition rate
How it was run: as §3

Digitaria ciliaris [7] = experiment: Test Example 4: herbicidal effect test by stem and leaf treatment in upland field; conditions: Digitaria ciliaris; 120 g per 10 ares; sprayed seven days after sowing, upland soil; 14 days after application; read-out: weed inhibition rate
Echinochloa crus-galli [8] = experiment: as above; conditions: Echinochloa crus-galli; 120 g per 10 ares; sprayed seven days after sowing, upland soil; 14 days after application; read-out: weed inhibition rate
[9] = tested on: Echinochloa crus-galli var. formosensis; experiment: Test Example 5: herbicidal effect test by soil application in paddy rice (low dose); conditions: Echinochloa crus-galli, soil, 336 h; 7.5 g per 10 ares; applied immediately after sowing, flooded pots; 14 days after application; read-out: weed inhibition rate
How it was run: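 Paddy soil in Wagner pots was fertilized (N:P:K 16:16:16), puddled, sown with 30 seeds per weed species at 0–1 cm, then flooded to ~3 cm in a glass greenhouse. Emulsifiable concentrate diluted in water was dropper-applied into floodwater immediately, at 7.5 g active ingredient per 10 ares; duplicates, scored at 14 days.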

[10] = tested on: Echinochloa crus-galli var. formosensis; experiment: Test Example 6: herbicidal effect test by application during growth period of paddy rice (low dose); conditions: Echinochloa crus-galli; 7.5 g per 10 ares; applied seven days after sowing, flooded pots; 14 days after application; read-out: weed inhibition rate
How it was run: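 Emulsifiable concentrate, water-diluted, dropped onto flooded paddy pots 7 days post-sowing at 7.5 g active ingredient/10 a. Greenhouse-grown weeds; percent inhibition scored at day 14 after treatment.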

Digitaria ciliaris [11] = experiment: Test Example 7: herbicidal effect test by soil application in upland field (low dose); conditions: Digitaria ciliaris, 7.5 g per 10 ares, sprayed one day after sowing, 14 days after application, read-out: weed inhibition rate
How it was run: (§4)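 Pre-emergence soil application: upland alluvial loam pots sown with weed seeds mixed into the top 1 cm; one day after sowing, a water-diluted emulsifiable concentrate was sprayed on the soil at 100 L per 10 a, delivering 7.5 g active ingredient per 10 a. Weed inhibition rate (%) scored 14 days after application, duplicate pots.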

Echinochloa crus-galli [12] = experiment: as above; conditions: Echinochloa crus-galli, 7.5 g per 10 ares, sprayed one day after sowing, 14 days after application, read-out: weed inhibition rate
How it was run: as §4

Digitaria ciliaris [13] = experiment: Test Example 8: herbicidal effect test by stem and leaf treatment in upland field (low dose); conditions: Digitaria ciliaris; 7.5 g per 10 ares; sprayed seven days after sowing, upland soil; 14 days after application; read-out: weed inhibition rate
Echinochloa crus-galli [14] = experiment: as above; conditions: Echinochloa crus-galli; 7.5 g per 10 ares; sprayed seven days after sowing, upland soil; 14 days after application; read-out: weed inhibition rate

CC(C)C12CC(OCc3ccccc3Cl)C(C)(CC1I)O2 (stereo not drawn) [1-1424, 5-[(2-chlorophenyl)methoxy]-2-iodo-1-isopropyl-4-methyl-7-oxabicyclo[2.2.1]heptane]
≥ 80%: pest or weed control at 1200 g/ha [1] | pest or weed control at 1200 g/ha (Scirpus juncoides [2]) | inhibition at 1200 g/ha [3] | inhibition at 1200 g/ha (Scirpus juncoides [4]) | inhibition at 1200 g/ha (Digitaria ciliaris [5]) | inhibition at 1200 g/ha (Echinochloa crus-galli [6]) | inhibition at 1200 g/ha (Digitaria ciliaris [7]) | inhibition at 1200 g/ha (Echinochloa crus-galli [8]) | inhibition at 75 g/ha [9] | inhibition at 75 g/ha [10] | inhibition at 75 g/ha (Digitaria ciliaris [11]) | inhibition at 75 g/ha (Echinochloa crus-galli [12]) | inhibition at 75 g/ha (Digitaria ciliaris [13]) | inhibition at 75 g/ha (Echinochloa crus-galli [14])

CC(C)[C@]12C=C[C@](C)(O1)[C@H](OCC1CCCCC1)C2 [3-697, (1R,4S,5R)-5-(cyclohexylmethoxy)-1-isopropyl-4-methyl-7-oxabicyclo[2.2.1]hept-2-ene]
≥ 80%: pest or weed control at 1200 g/ha [1] | pest or weed control at 1200 g/ha (Scirpus juncoides [2]) | inhibition at 1200 g/ha [3] | inhibition at 1200 g/ha (Scirpus juncoides [4]) | inhibition at 1200 g/ha (Digitaria ciliaris [5]) | inhibition at 1200 g/ha (Echinochloa crus-galli [6]) | inhibition at 1200 g/ha (Digitaria ciliaris [7]) | inhibition at 1200 g/ha (Echinochloa crus-galli [8]) | inhibition at 75 g/ha [9] | inhibition at 75 g/ha [10] | inhibition at 75 g/ha (Digitaria ciliaris [11]) | inhibition at 75 g/ha (Echinochloa crus-galli [12]) | inhibition at 75 g/ha (Digitaria ciliaris [13]) | inhibition at 75 g/ha (Echinochloa crus-galli [14])

CC(C)[C@]12C[C@@H](OCc3ccccc3)[C@](C)(C[C@@H]1I)O2 [1-740, (1R,2S,4S,5R)-5-benzyloxy-2-iodo-1-isopropyl-4-methyl-7-oxabicyclo[2.2.1]heptane]
≥ 80%: pest or weed control at 1200 g/ha [1] | pest or weed control at 1200 g/ha (Scirpus juncoides [2]) | inhibition at 1200 g/ha [3] | inhibition at 1200 g/ha (Scirpus juncoides [4]) | inhibition at 1200 g/ha (Digitaria ciliaris [5]) | inhibition at 1200 g/ha (Echinochloa crus-galli [6]) | inhibition at 1200 g/ha (Digitaria ciliaris [7]) | inhibition at 1200 g/ha (Echinochloa crus-galli [8]) | inhibition at 75 g/ha [9] | inhibition at 75 g/ha [10] | inhibition at 75 g/ha (Digitaria ciliaris [11]) | inhibition at 75 g/ha (Echinochloa crus-galli [12]) | inhibition at 75 g/ha (Digitaria ciliaris [13]) | inhibition at 75 g/ha (Echinochloa crus-galli [14])

CC(C)[C@]12C[C@@H](OCc3ccccn3)[C@](C)(C[C@@H]1Cl)O2 [1-658, 2-[[(1S,2R,4R,5S)-5-chloro-4-isopropyl-1-methyl-7-oxabicyclo[2.2.1]heptan-2-yl]oxymethyl]pyridine]
≥ 80%: pest or weed control at 1200 g/ha [1] | pest or weed control at 1200 g/ha (Scirpus juncoides [2]) | inhibition at 1200 g/ha [3] | inhibition at 1200 g/ha (Scirpus juncoides [4]) | inhibition at 1200 g/ha (Digitaria ciliaris [5]) | inhibition at 1200 g/ha (Echinochloa crus-galli [6]) | inhibition at 1200 g/ha (Digitaria ciliaris [7]) | inhibition at 1200 g/ha (Echinochloa crus-galli [8]) | inhibition at 75 g/ha [9] | inhibition at 75 g/ha [10] | inhibition at 75 g/ha (Digitaria ciliaris [11]) | inhibition at 75 g/ha (Echinochloa crus-galli [12]) | inhibition at 75 g/ha (Digitaria ciliaris [13]) | inhibition at 75 g/ha (Echinochloa crus-galli [14])

CC(C)C12CC(OCc3ccccc3C#N)C(C)(CC1Cl)O2 (stereo not drawn) [1-1304, 2-[(5-chloro-1-methyl-4-isopropyl-7-oxabicyclo[2.2.1]heptan-2-yl)oxymethyl]benzonitrile]
≥ 80%: pest or weed control at 1200 g/ha [1] | pest or weed control at 1200 g/ha (Scirpus juncoides [2]) | inhibition at 1200 g/ha [3] | inhibition at 1200 g/ha (Scirpus juncoides [4]) | inhibition at 1200 g/ha (Digitaria ciliaris [5]) | inhibition at 1200 g/ha (Echinochloa crus-galli [6]) | inhibition at 1200 g/ha (Digitaria ciliaris [7]) | inhibition at 1200 g/ha (Echinochloa crus-galli [8]) | inhibition at 75 g/ha [9] | inhibition at 75 g/ha [10] | inhibition at 75 g/ha (Digitaria ciliaris [11]) | inhibition at 75 g/ha (Echinochloa crus-galli [12]) | inhibition at 75 g/ha (Digitaria ciliaris [13]) | inhibition at 75 g/ha (Echinochloa crus-galli [14])

CO[C@H]1C[C@]2(C)O[C@@]1(C(C)C)CC2OCC=C(C)C (mixture of isomers) [1-799, (1R,2S,4S,SR)-1-isopropyl-2-methoxy-4-methyl-5-(3-methylbut-2-enoxy)-7-oxabicyclo[2.2.1]heptane]
≥ 80%: pest or weed control at 1200 g/ha [1] | pest or weed control at 1200 g/ha (Scirpus juncoides [2]) | inhibition at 1200 g/ha [3] | inhibition at 1200 g/ha (Scirpus juncoides [4]) | inhibition at 1200 g/ha (Digitaria ciliaris [5]) | inhibition at 1200 g/ha (Echinochloa crus-galli [6]) | inhibition at 1200 g/ha (Digitaria ciliaris [7]) | inhibition at 1200 g/ha (Echinochloa crus-galli [8]) | inhibition at 75 g/ha [9] | inhibition at 75 g/ha [10] | inhibition at 75 g/ha (Digitaria ciliaris [11]) | inhibition at 75 g/ha (Echinochloa crus-galli [12]) | inhibition at 75 g/ha (Digitaria ciliaris [13]) | inhibition at 75 g/ha (Echinochloa crus-galli [14])
